According to patent US20240358692A1, “TREATMENT OF SCLERODERMA” (Aisa Pharma, Inc., priority 2023, published 2024):

Columns and labels:
participants with SSc-RP [1] = assay: Average duration of weekly RP attacks (minutes), patient diary; type: in vivo, human; details: Tadalafil 5 mg
Description: The absolute change in average duration of weekly RP attacks from baseline to the end of each dosing period was and will be a secondary outcome variable. The sponsor-developed participant-informed diary was and will be used to record data. Average duration of weekly RP attacks is defined as the total duration of RP attacks divided by total number of RP attacks within the last 7 days of each dosing period. Total duration of RP attacks during the last 7 days of screening period divided by the total number of RP attacks will be used as baseline for the analysis of all periods. The variable will be calculated similar to frequency data as before.

participants with SSc-RP [2] = assay: SHAQ - Visual Analog Scale - Intestinal Problems; type: in vivo, human; design: Visual Analog Scale-Intestinal Problems, In Clinic Visit (Day 12), Mean / Visual Analog Scale-Intestinal Problems, In Clinic Visit (Day 12), Median / Visual Analog Scale-Intestinal Problems, Change from Baseline, Mean / Visual Analog Scale-Intestinal Problems, Change from Baseline, Median / SHAQ Visual Analogue Scale - Intestinal Problems, In-Clinic Visit (Day 12), Median: scale not given here
Description: The standard, validated, patient reported outcome measures tool for SSc patients, the Scleroderma Health Assessment Questionnaire (SHAQ), will be used to assess the participant qualify of life. Details are attached in the Appendix. The participant quality of life will be scored, and a disability index calculated for each questionnaire completed by the patient at Screening and each in-clinic visit. The absolute change in participant quality of life from baseline to the end of each dosing period will be calculated similar to frequency data as before.
The standard, validated, patient reported outcome measures tool for SSc patients, the SHAQ, was collected at the time points specified in the study schedules (FIG. 2 and FIGS. 4A and 4B) to assess the participant's quality of life. The SHAQ included a Raynaud's VAS that will also be reported separately.

[3] = Excluding Outliers, ITT Population - Part A, last 7 days of dosing period
[4] = by Baseline RCS, second RCS subgroup of table (not named), ITT Population - Part A
[5] = excluding outliers, 2nd baseline RCS subgroup, ITT Part A
[6] = last 7 days of dosing period, ITT Part A
[7] = Modified ITT Population-Part A, Day 12, dose cilnidipine 10 mg, tadalafil 5 mg, alone or combined as labelled
[8] = Tadalafil 5 mg, SSc patients, PP, Part A

## CN1CC(=O)N2[C@H](c3ccc4c(c3)OCO4)c3[nH]c4ccccc4c3C[C@@H]2C1=O [Tadalafil]
Participants with SSc-RP [1]; [3]
  Average Duration of Weekly RP Attacks (All Attacks), Mean: 5.95 min
  Average Duration of Weekly RP Attacks (All Attacks), Median: 5.95 min
Participants with SSc-RP [1]; [4]
  Change from Baseline in average duration of weekly symptomatic RP attacks, Mean: 140.74 min
  Change from Baseline in average duration of weekly symptomatic RP attacks, Median: 140.74 min
  Percent Change from Baseline in average duration of weekly symptomatic RP attacks, Mean: 5.21%
  Percent Change from Baseline in average duration of weekly symptomatic RP attacks, Median: 5.21%
Participants with SSc-RP [1]; [5]
  Average duration of weekly RP attacks, Change from Baseline, Mean: -4.98 min
  Average duration of weekly RP attacks, Change from Baseline, Median: -4.98 min
  Average duration of weekly RP attacks, Percent Change from Baseline, Mean: −45.55%
  Average duration of weekly RP attacks, Percent Change from Baseline, Median: −45.55%
Participants with SSc-RP [1]; [6]
  Average Duration of weekly symptomatic RP attacks, Mean: 412.29 min
  Average Duration of weekly symptomatic RP attacks, Median: 412.29 min
Participants with SSc-RP [2]; [7]
  Visual Analog Scale-Intestinal Problems, Change from Baseline, Median: 0.000
  Visual Analog Scale-Intestinal Problems, Percent Change from Baseline, Median: 0.00%
Participants with SSc-RP [2]; [8]
  SHAQ VAS Intestinal Problems, Change from Baseline, Max: 1.80
  SHAQ VAS Intestinal Problems, Change from Baseline, Median: 0.000
  SHAQ VAS Intestinal Problems, Change from Baseline, Min: −2.30,
  SHAQ VAS Intestinal Problems, Change from Baseline, Q1: −1.150,
  SHAQ VAS Intestinal Problems, Change from Baseline, Q3: 0.900
  SHAQ VAS Intestinal Problems, Day 12, Max: 9.20
  SHAQ VAS Intestinal Problems, Day 12, Mean: 3.025
  SHAQ VAS Intestinal Problems, Day 12, Median: 1.450
  SHAQ VAS Intestinal Problems, Day 12, Min: 0.00,
  SHAQ VAS Intestinal Problems, Day 12, Q1: 0.050,
  SHAQ VAS Intestinal Problems, Day 12, Q3: 6.000
  SHAQ VAS Intestinal Problems, Percent Change from Baseline, Max: 24.3
  SHAQ VAS Intestinal Problems, Percent Change from Baseline, Mean: −6.92
  SHAQ VAS Intestinal Problems, Percent Change from Baseline, Median: 0.00
  SHAQ VAS Intestinal Problems, Percent Change from Baseline, Min: −45.1,
  SHAQ VAS Intestinal Problems, Percent Change from Baseline, Q1: −45.10,
  SHAQ VAS Intestinal Problems, Percent Change from Baseline, Q3: 24.32
